{"source": "ChEMBL document CHEMBL4804286", "about": "“3-amino-4-(4-(4 (dimethylcarbamoyl) phenyl)-1,4-diazepan-1-yl) thieno [2,3-b] pyridine-2-carboxamide for use in cancer therapy and formulations comprising the same” (2020)", "key": {"[1]": {"target": "Cyclin-dependent kinase 19 (Homo sapiens) (UniProt Q9BWU1)", "conditions": "INHIBITOR, dose 2000.0 nM", "description": "Inhibition of human CDK19 at 2000 nM by KINOMEscan assay"}, "[2]": {"test_system": "Tyrosine-protein kinase ABL1 (Homo sapiens), P00519 [T315I]", "assay": "Inhibition of non-phosphorylated human ABL1 T315I mutant assessed as percent of control at 2000 nM by KINOMEscan assay relative to control", "parameters": "scale not given: the % may be the effect or the level left"}, "[3]": {"target": "Serine/threonine-protein kinase 4 (Homo sapiens) (UniProt Q13043)", "sequence (Q13043 whole entry)": "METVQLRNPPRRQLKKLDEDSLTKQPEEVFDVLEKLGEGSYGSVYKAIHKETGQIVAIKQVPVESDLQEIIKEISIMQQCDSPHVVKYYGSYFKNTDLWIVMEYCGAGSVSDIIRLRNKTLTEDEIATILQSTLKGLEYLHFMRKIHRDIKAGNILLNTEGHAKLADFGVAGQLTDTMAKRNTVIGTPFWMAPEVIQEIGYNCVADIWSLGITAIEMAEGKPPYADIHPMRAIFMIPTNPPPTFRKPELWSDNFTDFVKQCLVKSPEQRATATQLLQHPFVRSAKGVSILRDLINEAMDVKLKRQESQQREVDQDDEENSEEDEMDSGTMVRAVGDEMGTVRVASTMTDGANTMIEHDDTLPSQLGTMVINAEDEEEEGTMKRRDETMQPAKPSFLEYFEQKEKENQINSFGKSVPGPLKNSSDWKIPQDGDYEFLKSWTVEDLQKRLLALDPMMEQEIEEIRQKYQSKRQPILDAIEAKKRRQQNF", "assay": "Inhibition of human MST1 assessed as percent of control at 2000 nM by KINOMEscan assay relative to control", "parameters": "scale not given: the % may be the effect or the level left"}, "[4]": {"target": "Serine/threonine-protein kinase WNK2 (Homo sapiens) (UniProt Q9Y3S1)", "assay": "Inhibition of human WNK2 assessed as percent of control at 2000 nM by KINOMEscan assay relative to control", "parameters": "scale not given: the % may be the effect or the level left"}, "[5]": {"target": "G protein-coupled receptor kinase 3 (Homo sapiens) (UniProt P35626)", "sequence (P35626 whole entry)": "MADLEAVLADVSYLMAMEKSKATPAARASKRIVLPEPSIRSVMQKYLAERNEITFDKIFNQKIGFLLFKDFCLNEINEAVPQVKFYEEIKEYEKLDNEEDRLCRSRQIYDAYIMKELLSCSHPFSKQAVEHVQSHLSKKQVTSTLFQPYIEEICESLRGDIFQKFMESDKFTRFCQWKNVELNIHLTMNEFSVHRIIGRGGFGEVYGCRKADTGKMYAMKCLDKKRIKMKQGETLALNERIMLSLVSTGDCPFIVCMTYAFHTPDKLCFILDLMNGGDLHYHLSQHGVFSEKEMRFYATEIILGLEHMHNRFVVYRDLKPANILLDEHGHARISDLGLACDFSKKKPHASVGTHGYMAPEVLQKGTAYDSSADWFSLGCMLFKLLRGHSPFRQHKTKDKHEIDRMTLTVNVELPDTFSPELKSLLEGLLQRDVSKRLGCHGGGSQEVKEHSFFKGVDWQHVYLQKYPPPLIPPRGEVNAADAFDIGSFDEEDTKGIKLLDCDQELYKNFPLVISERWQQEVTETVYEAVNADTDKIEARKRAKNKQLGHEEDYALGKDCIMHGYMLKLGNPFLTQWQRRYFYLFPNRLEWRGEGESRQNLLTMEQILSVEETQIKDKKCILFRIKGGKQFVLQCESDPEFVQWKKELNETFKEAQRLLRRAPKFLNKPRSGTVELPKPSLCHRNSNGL", "assay": "Inhibition of human GRK3 assessed as percent of control at 2000 nM by KINOMEscan assay relative to control", "parameters": "scale not given: the % may be the effect or the level left"}, "[6]": {"target": "Mitogen-activated protein kinase 1 (Homo sapiens) (UniProt P28482)", "sequence (P28482 whole entry)": "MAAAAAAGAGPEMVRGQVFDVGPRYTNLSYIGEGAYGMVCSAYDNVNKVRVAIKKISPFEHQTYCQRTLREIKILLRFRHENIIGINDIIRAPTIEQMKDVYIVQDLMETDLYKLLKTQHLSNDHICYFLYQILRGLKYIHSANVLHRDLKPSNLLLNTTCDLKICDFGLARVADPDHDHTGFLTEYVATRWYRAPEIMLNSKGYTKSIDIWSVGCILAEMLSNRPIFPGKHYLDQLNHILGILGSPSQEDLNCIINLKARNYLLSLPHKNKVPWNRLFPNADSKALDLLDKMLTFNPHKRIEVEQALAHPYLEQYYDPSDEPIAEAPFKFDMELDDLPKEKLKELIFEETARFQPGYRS", "assay": "Inhibition of human ERK2 assessed as percent of control at 2000 nM by KINOMEscan assay relative to control", "parameters": "scale not given: the % may be the effect or the level left"}, "[7]": {"target": "Dual specificity protein kinase TTK (Homo sapiens) (UniProt P33981)", "sequence (P33981 whole entry)": "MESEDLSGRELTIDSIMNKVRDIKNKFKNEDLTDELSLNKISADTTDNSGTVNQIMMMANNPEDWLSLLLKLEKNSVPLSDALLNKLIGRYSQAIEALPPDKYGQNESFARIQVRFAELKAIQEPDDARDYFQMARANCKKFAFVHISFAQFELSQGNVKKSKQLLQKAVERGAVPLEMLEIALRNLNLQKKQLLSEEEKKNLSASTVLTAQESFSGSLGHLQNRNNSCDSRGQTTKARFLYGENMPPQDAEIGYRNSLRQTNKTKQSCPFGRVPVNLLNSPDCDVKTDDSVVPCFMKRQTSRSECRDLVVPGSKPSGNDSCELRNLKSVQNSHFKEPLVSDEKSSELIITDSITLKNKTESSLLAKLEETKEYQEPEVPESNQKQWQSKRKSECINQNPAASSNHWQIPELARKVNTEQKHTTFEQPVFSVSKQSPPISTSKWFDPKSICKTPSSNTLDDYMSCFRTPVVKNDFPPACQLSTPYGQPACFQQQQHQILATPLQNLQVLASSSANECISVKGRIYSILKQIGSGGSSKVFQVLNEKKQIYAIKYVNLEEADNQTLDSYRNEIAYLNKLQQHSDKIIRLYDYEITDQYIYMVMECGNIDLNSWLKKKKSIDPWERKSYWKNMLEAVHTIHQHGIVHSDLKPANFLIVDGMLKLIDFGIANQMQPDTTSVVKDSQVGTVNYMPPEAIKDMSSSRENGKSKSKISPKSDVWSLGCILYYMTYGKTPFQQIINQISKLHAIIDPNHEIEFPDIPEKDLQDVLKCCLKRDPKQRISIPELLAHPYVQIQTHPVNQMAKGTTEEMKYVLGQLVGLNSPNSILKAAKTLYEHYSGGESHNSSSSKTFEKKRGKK", "assay": "Inhibition of human TTK assessed as percent of control at 2000 nM by KINOMEscan assay relative to control", "parameters": "scale not given: the % may be the effect or the level left"}, "[8]": {"target": "LIM domain kinase 1 (Homo sapiens) (UniProt P53667)", "sequence (P53667 whole entry, looked up, the tested form may be a part)": "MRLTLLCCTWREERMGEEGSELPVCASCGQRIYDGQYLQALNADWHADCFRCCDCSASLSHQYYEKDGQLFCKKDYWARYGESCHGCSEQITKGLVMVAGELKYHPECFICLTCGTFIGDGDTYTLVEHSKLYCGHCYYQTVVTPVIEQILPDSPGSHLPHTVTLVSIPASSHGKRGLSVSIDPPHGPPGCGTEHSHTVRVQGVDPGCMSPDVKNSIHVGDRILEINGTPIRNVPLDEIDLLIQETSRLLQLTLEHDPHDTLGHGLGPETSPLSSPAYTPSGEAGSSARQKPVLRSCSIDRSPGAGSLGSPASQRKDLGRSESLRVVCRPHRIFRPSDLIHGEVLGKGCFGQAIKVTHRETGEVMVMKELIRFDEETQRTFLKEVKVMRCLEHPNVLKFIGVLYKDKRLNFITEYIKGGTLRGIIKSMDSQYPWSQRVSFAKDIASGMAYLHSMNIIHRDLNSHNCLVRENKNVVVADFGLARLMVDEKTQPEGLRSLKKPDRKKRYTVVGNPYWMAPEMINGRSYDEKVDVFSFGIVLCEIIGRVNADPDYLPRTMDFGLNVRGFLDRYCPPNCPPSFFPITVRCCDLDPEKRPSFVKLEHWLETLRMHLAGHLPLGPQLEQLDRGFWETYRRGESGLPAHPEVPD", "assay": "Inhibition of human LIMK1 assessed as percent of control at 2000 nM by KINOMEscan assay relative to control", "parameters": "scale not given: the % may be the effect or the level left"}, "[9]": {"target": "cGMP-dependent protein kinase 2 (Homo sapiens) (UniProt Q13237)", "assay": "Inhibition of human PRKG2 assessed as percent of control at 2000 nM by KINOMEscan assay relative to control", "parameters": "scale not given: the % may be the effect or the level left"}, "[10]": {"target": "Serine/threonine-protein kinase 38-like (Homo sapiens) (UniProt Q9Y2H1)", "assay": "Inhibition of human NDR2 assessed as percent of control at 2000 nM by KINOMEscan assay relative to control", "parameters": "scale not given: the % may be the effect or the level left"}, "[11]": {"target": "Calcium/calmodulin-dependent protein kinase type 1G (Homo sapiens) (UniProt Q96NX5)", "assay": "Inhibition of human CAMK1G assessed as percent of control at 2000 nM by KINOMEscan assay relative to control", "parameters": "scale not given: the % may be the effect or the level left"}, "[12]": {"test_system": "Epidermal growth factor receptor (Homo sapiens), P00533 [L858R,T790M]", "assay": "Inhibition of human EGFR L858R/T790M double mutant assessed as percent of control at 2000 nM by KINOMEscan assay relative to control", "parameters": "scale not given: the % may be the effect or the level left"}, "[13]": {"test_system": "Receptor-type tyrosine-protein kinase FLT3 (Homo sapiens), P36888 [D835Y]", "assay": "Inhibition of human FLT3 D835Y mutant assessed as percent of control at 2000 nM by KINOMEscan assay relative to control", "parameters": "scale not given: the % may be the effect or the level left"}, "[14]": {"target": "Receptor-interacting serine/threonine-protein kinase 2 (Homo sapiens) (UniProt O43353)", "sequence (O43353 whole entry)": "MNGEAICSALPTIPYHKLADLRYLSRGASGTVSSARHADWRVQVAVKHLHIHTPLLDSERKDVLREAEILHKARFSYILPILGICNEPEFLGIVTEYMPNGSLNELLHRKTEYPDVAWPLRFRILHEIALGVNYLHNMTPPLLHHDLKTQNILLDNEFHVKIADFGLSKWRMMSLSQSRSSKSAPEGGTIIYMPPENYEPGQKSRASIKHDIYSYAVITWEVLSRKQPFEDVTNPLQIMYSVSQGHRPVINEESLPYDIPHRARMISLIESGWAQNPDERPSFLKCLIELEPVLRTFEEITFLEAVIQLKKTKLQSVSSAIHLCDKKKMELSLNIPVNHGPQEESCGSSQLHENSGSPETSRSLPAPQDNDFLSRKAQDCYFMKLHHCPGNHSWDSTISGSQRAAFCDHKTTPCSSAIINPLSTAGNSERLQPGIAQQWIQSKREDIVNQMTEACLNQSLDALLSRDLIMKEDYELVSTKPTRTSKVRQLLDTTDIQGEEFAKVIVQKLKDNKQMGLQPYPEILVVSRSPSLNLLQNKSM", "assay": "Inhibition of human RIPK2 assessed as percent of control at 2000 nM by KINOMEscan assay relative to control", "parameters": "scale not given: the % may be the effect or the level left"}, "[15]": {"test_system": "Receptor-type tyrosine-protein kinase FLT3 (Homo sapiens), P36888 [UNDEFINED MUTATION]", "assay": "Inhibition of human FLT3 ITD/D835V double mutant assessed as percent of control at 2000 nM by KINOMEscan assay relative to control", "parameters": "scale not given: the % may be the effect or the level left", "conditions": "INHIBITOR"}, "[16]": {"target": "AP2-associated protein kinase 1 (Homo sapiens) (UniProt Q2M2I8)", "sequence (Q2M2I8 whole entry, looked up)": "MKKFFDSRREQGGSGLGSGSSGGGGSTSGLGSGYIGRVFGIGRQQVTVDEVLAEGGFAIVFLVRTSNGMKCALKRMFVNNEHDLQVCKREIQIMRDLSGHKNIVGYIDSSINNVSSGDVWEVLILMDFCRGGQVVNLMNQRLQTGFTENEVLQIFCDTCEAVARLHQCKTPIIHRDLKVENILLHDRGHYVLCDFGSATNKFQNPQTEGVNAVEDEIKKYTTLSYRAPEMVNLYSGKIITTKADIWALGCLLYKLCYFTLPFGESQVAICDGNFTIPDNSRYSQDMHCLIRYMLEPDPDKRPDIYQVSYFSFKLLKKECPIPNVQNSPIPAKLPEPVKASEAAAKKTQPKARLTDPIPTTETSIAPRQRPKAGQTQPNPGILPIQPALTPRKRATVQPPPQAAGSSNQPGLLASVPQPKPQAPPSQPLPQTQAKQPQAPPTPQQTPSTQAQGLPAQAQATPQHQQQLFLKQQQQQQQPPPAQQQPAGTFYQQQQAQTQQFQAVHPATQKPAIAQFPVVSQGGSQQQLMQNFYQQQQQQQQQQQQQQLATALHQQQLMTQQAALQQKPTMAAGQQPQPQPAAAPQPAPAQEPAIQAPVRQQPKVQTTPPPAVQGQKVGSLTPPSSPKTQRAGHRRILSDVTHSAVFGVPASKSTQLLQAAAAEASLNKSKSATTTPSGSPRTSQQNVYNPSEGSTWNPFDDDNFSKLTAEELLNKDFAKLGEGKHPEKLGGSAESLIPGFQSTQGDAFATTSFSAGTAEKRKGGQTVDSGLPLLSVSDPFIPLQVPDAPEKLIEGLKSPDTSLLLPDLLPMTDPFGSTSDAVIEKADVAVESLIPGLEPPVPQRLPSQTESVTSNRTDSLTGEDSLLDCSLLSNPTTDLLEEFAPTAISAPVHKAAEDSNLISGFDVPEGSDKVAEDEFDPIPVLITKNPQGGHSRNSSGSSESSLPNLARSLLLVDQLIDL", "assay": "Inhibition of human AAK1 assessed as percent of control at 2000 nM by KINOMEscan assay relative to control", "parameters": "scale not given: the % may be the effect or the level left"}, "[17]": {"target": "Activin receptor type-1-like (Homo sapiens) (UniProt P37023)", "assay": "Inhibition of human ACVRL1 assessed as percent of control at 2000 nM by KINOMEscan assay relative to control", "parameters": "scale not given: the % may be the effect or the level left"}, "[18]": {"target": "Tyrosine-protein kinase Fes/Fps (Homo sapiens) (UniProt P07332)", "assay": "Inhibition of human FES assessed as percent of control at 2000 nM by KINOMEscan assay relative to control", "parameters": "scale not given: the % may be the effect or the level left"}, "[19]": {"target": "Cyclin-dependent kinase-like 2 (Homo sapiens) (UniProt Q92772)", "assay": "Inhibition of human CDKL2 assessed as percent of control at 2000 nM by KINOMEscan assay relative to control", "parameters": "scale not given: the % may be the effect or the level left"}, "[20]": {"target": "Homeodomain-interacting protein kinase 3 (Homo sapiens) (UniProt Q9H422)", "assay": "Inhibition of human HIPK3 assessed as percent of control at 2000 nM by KINOMEscan assay relative to control", "parameters": "scale not given: the % may be the effect or the level left"}, "[21]": {"target": "Serine/threonine-protein kinase 16 (Homo sapiens) (UniProt O75716)", "assay": "Inhibition of human STK16 assessed as percent of control at 2000 nM by KINOMEscan assay relative to control", "parameters": "scale not given: the % may be the effect or the level left"}, "[22]": {"target": "Dual specificity protein kinase CLK1 (Homo sapiens) (UniProt P49759)", "assay": "Inhibition of human CLK1 assessed as percent of control at 2000 nM by KINOMEscan assay relative to control", "parameters": "scale not given: the % may be the effect or the level left"}, "[23]": {"target": "Serine/threonine-protein kinase 3 (Homo sapiens) (UniProt Q13188)", "assay": "Inhibition of human MST2 assessed as percent of control at 2000 nM by KINOMEscan assay relative to control", "parameters": "scale not given: the % may be the effect or the level left"}, "[24]": {"target": "Serine/threonine-protein kinase PAK 2 (Homo sapiens) (UniProt Q13177)", "assay": "Inhibition of human PAK2 assessed as percent of control at 2000 nM by KINOMEscan assay relative to control", "parameters": "scale not given: the % may be the effect or the level left"}, "[25]": {"target": "Tyrosine-protein kinase Mer (Homo sapiens) (UniProt Q12866)", "assay": "Inhibition of human MERTK assessed as percent of control at 2000 nM by KINOMEscan assay relative to control", "parameters": "scale not given: the % may be the effect or the level left"}, "[26]": {"target": "Tyrosine-protein kinase Lyn (Homo sapiens) (UniProt P07948)", "sequence (P07948 2-512 limits assumed)": "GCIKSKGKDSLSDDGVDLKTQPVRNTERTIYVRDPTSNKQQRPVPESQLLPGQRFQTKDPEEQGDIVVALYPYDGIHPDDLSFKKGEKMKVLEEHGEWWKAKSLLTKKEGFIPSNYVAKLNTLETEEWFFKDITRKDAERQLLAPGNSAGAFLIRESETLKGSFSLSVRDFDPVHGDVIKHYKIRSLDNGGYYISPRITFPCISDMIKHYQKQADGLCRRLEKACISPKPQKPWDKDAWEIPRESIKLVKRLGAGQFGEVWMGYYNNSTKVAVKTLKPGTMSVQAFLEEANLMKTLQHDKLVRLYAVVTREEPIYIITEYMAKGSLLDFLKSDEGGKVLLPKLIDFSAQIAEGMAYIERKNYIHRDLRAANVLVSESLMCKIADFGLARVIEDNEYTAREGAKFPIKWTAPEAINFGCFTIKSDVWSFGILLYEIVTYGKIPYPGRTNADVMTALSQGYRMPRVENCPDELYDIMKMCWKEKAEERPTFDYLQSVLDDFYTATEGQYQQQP", "assay": "Inhibition of human LYN assessed as percent of control at 2000 nM by KINOMEscan assay relative to control", "parameters": "scale not given: the % may be the effect or the level left"}, "[27]": {"target": "Ephrin type-A receptor 8 (Homo sapiens) (UniProt P29322)", "assay": "Inhibition of human EPHA8 assessed as percent of control at 2000 nM by KINOMEscan assay relative to control", "parameters": "scale not given: the % may be the effect or the level left"}, "[28]": {"target": "Ephrin type-B receptor 6 (Homo sapiens) (UniProt O15197)", "assay": "Inhibition of human EPHB6 assessed as percent of control at 2000 nM by KINOMEscan assay relative to control", "parameters": "scale not given: the % may be the effect or the level left"}, "[29]": {"target": "Casein kinase I isoform alpha-like (Homo sapiens) (UniProt Q8N752)", "assay": "Inhibition of human CSNK1A1L assessed as percent of control at 2000 nM by KINOMEscan assay relative to control", "parameters": "scale not given: the % may be the effect or the level left"}, "[30]": {"target": "Serine/threonine-protein kinase PAK 3 (Homo sapiens) (UniProt O75914)", "assay": "Inhibition of human PAK3 assessed as percent of control at 2000 nM by KINOMEscan assay relative to control", "parameters": "scale not given: the % may be the effect or the level left"}}, "note": "Several values for one entry are separate records, joined by “and”; a condition that tells them apart may be missing. Equal values may be shown once."}
{"smiles": "CN(C)C(=O)c1ccc(N2CCCN(c3ccnc4sc(C(N)=O)c(N)c34)CC2)cc1", "values": [{"measurement": "inhibition", "setting": "[1]", "result": "> 65", "unit": "%"}, {"measurement": "Activity", "setting": "[2]", "result": "90% and 78%"}, {"measurement": "Activity", "setting": "[3]", "result": "100% and 98%"}, {"measurement": "Activity", "setting": "[4]", "result": "96% and 94%"}, {"measurement": "Activity", "setting": "[5]", "result": "99% and 87%"}, {"measurement": "Activity", "setting": "[6]", "result": "78% and 92%"}, {"measurement": "Activity", "setting": "[7]", "result": "83% and 80%"}, {"measurement": "Activity", "setting": "[8]", "result": 100, "unit": "%"}, {"measurement": "Activity", "setting": "[9]", "result": "98% and 90%"}, {"measurement": "Activity", "setting": "[10]", "result": 99, "unit": "%"}, {"measurement": "Activity", "setting": "[10]; INHIBITOR", "result": 36, "unit": "%"}, {"measurement": "Activity", "setting": "[11]", "result": 99, "unit": "%"}, {"measurement": "Activity", "setting": "[12]", "result": "100% and 87%"}, {"measurement": "Activity", "setting": "[13]", "result": 100, "unit": "%"}, {"measurement": "Activity", "setting": "[13]; INHIBITOR", "result": 46, "unit": "%"}, {"measurement": "Activity", "setting": "[14]", "result": "100% and 93%"}, {"measurement": "Activity", "setting": "[15]", "result": "41% and 34%"}, {"measurement": "Activity", "setting": "[16]", "result": "94% and 90%"}, {"measurement": "Activity", "setting": "[17]", "result": "99% and 100%"}, {"measurement": "Activity", "setting": "[18]", "result": 100, "unit": "%"}, {"measurement": "Activity", "setting": "[19]", "result": "86% and 96%"}, {"measurement": "Activity", "setting": "[20]", "result": "77% and 81%"}, {"measurement": "Activity", "setting": "[21]", "result": "80% and 87%"}, {"measurement": "Activity", "setting": "[22]", "result": "88% and 68%"}, {"measurement": "Activity", "setting": "[23]", "result": "100% and 84%"}, {"measurement": "Activity", "setting": "[24]", "result": "91% and 94%"}, {"measurement": "Activity", "setting": "[25]", "result": "89% and 100%"}, {"measurement": "Activity", "setting": "[26]", "result": "100% and 98%"}, {"measurement": "Activity", "setting": "[27]", "result": "94% and 83%"}, {"measurement": "Activity", "setting": "[28]", "result": "95% and 89%"}, {"measurement": "Activity", "setting": "[29]", "result": 67, "unit": "%"}, {"measurement": "Activity", "setting": "[29]; INHIBITOR", "result": 37, "unit": "%"}, {"measurement": "Activity", "setting": "[30]", "result": 80, "unit": "%"}, {"measurement": "Activity", "setting": "[30]; INHIBITOR", "result": 40, "unit": "%"}]}
